Target: T1, PI3Kδ (Homo sapiens, UniProt O00329)
T1 construct: The protein is full length and co-expressed with untagged PIK3R1; GST; purchased Invitrogen PV5274
Test: PI3Kδ inhibition, modified PIK3CD Adapta TR-FRET assay
Type: biochemical
Details: recombinant GST-tagged full length PIK3CD co-expressed with PIK3R1 (p85α), 2 μM ATP, 50 μM PIP2; for IC50: read-out: PI3Kδ Inhibition (pIC50) (converted)
Protocol: The activity of compounds as PI3Kδ inhibitors may be determined by a variety of methods, including in vitro and in vivo methods. The following in vitro assay measures a test compound's ability to inhibit PI3Kδ-mediated phosphorylation of PIP2 and ATP.
Recombinant GST-tagged PIK3CD is purchased from Invitrogen (Part Number: PV5274). The protein is full length and co-expressed with untagged PIK3R1, phosphoinositide-3-kinase regulatory subunit 1 (p85α). The protein is stored at −20° C. in 50 mM TRIS (pH 7.5), 150 mM NaCl, 0.5 mM EDTA, 0.02% Triton® X-100, 2 mM DTT, and 50% glycerol.
A modified PIK3CD Adapta® assay (Invitrogen, Carlsbad, Calif.) is used to measure PI3Kδ inhibition of the example compounds. The assay has two phases. In the first phase, kinase reaction components, which include the enzyme (PIK3CD), substrates (PIP2, ATP), test compound (inhibitor), and assay buffer are added to each well, and the reaction is allowed to incubate for a pre-determined period of time. […] In the presence of the inhibitor, the amount of ADP formed by the kinase reaction is reduced, and the resulting intact antibody-tracer interaction maintains a high TR-FRET signal.
The reaction buffer contains 50 mM Hepes (pH 7.5), 3 mM MgCl2, 1 mM EGTA, 100 mM NaCl, 0.03% CHAPS; 2 mM DTT is added fresh prior to each experiment. […] Next, test compounds (2 μL) from a source plate (5% dilution plate) are introduced into the wells. The final DMSO concentration in each assay well is 1%. […] Other wells contain test compounds serially diluted across the plate 11 times for a total of 12 data points. The kinase reactions are carried out at room temperature and are initiated by the addition of 4 μL of solution containing 2 μM ATP and 50 μM PIP2. […] This emission signal is referenced or “ratioed” to the emission from Eu at 620 nm. […] The percent inhibition for a given inhibitor concentration is computed from % conversion for the reaction and for the positive and negative controls.

T1 sequence (O00329 whole entry): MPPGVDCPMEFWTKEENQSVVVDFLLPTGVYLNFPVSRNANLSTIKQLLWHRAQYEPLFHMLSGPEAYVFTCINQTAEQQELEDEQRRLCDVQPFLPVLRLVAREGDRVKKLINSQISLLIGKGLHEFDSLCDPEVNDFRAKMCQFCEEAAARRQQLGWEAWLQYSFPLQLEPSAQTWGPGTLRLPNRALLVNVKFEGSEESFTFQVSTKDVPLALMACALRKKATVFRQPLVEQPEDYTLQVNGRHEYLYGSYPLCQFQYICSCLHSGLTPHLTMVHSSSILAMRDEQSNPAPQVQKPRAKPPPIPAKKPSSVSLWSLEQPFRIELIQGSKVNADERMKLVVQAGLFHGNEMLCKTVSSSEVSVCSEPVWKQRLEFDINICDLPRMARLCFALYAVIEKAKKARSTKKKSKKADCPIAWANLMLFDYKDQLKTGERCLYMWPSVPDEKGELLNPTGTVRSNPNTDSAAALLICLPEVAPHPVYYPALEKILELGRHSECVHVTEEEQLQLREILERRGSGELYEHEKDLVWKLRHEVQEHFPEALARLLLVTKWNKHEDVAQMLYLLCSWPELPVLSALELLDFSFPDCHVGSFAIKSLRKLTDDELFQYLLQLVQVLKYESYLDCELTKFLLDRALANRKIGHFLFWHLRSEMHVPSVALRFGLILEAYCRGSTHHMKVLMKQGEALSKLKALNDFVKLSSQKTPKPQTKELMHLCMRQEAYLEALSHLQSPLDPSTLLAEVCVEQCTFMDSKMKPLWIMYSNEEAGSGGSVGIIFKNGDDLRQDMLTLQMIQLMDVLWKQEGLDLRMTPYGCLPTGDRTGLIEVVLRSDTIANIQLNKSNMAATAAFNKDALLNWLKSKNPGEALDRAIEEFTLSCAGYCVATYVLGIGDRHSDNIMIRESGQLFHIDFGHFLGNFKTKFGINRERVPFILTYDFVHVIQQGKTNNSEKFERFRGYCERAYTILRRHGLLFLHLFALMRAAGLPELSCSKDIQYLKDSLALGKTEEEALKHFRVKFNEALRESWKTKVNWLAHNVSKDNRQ
T1 sequence (P27986 whole entry partner): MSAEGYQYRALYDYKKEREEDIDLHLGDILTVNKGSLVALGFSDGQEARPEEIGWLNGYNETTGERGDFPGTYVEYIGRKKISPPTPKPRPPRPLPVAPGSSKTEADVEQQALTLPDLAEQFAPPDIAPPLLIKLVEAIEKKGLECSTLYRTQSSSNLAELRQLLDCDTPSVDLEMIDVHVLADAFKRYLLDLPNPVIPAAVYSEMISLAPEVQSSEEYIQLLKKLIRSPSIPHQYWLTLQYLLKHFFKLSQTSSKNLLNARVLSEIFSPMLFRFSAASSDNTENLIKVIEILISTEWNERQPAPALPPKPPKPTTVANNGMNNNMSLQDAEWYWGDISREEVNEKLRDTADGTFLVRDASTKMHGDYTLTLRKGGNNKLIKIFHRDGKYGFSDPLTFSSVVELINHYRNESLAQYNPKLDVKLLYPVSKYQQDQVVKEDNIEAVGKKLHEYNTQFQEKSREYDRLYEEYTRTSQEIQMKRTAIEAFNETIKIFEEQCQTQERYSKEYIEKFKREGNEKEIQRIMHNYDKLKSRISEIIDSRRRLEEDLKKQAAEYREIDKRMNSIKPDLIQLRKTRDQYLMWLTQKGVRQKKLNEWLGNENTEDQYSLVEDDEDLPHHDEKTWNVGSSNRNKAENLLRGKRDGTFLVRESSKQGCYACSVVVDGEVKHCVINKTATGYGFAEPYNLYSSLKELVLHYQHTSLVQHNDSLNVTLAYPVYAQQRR

Row | Structure (SMILES) | IC50 | PI3Kδ Inhibition (pIC50)
1 | C[C@@H](c1ccccc1)N1C(=O)C2COCCN2c2nc(-c3cc[nH]n3)ncc21 (mixture of isomers) [Example 97, 5-((5)-1-phenylethyl)-2-(1H-pyrazol-3-yl)-6a,7,9,10-tetrahydro-[1,4]oxazino[3,4-h]pteridin-6(5H)-one] | 1000 nM | 
2 | C[C@@H](c1ccc(Cl)cc1)N1C(=O)C2COCCN2c2nc(-c3cnc(N)nc3)ncc21 (mixture of isomers) [Example 162] | 6.31 nM | 
3 | C[C@@H](c1ccc(Cl)cc1)N1C(=O)C2COCCN2c2nc(-c3cccc4[nH]ccc34)ncc21 (mixture of isomers) [Example 163, 5-((S)-1-(4-chlorophenyl)ethyl)-2-(1H-indol-4-yl)-6a,7,9,10-tetrahydro-[1,4]oxazino[3,4-h]pteridin-6(5H)-one] | 31.6 nM | 
4 | CNC(=O)Nc1ccc(-c2ncc3c(n2)N2CCOCC2C(=O)N3[C@@H](C)c2ccc(Cl)cc2)cc1 (single isomer, unassigned) [Example 85] | 12.6 nM | 
5 | CNC(=O)Nc1ccc(-c2ncc3c(n2)N2CCOC[C@H]2C(=O)N3[C@@H](C)c2ccc(C)cc2)cc1 (single isomer, unassigned) [Example 86] |  | 8.1
6 | CNC(=O)Nc1ccc(-c2ncc3c(n2)N2CCOC[C@@H]2C(=O)N3[C@@H](C)c2ccc(C)cc2)cc1 (single isomer, unassigned) [Example 87] |  | 7.1
7 | O=C1Nc2cnc(-c3cccc4[nH]ccc34)nc2N2CCOC[C@H]12 (single isomer, unassigned) [Example 149] | 200 nM | 
8 | O=C1Nc2cnc(-c3cccc4[nH]ccc34)nc2N2CCOC[C@@H]12 (single isomer, unassigned) [Example 150] | 5.01 nM | 
9 | Cc1ccc([C@H](C)N2C(=O)[C@@H]3COCCN3c3nc(-c4cccc5[nH]ccc45)ncc32)cc1 (single isomer, unassigned) [Example 153] | 39.8 nM | 
10 | CNC(=O)Nc1ccc(-c2ncc3c(n2)N2CCOCC2C(=O)N3[C@@H](C)c2ccc(Cl)cc2)cc1 (single isomer, unassigned) [Example 161] | 3.98 nM | 
11 | Nc1ncc(-c2ncc3c(n2)N2CCOCC2CN3)cn1 (stereo not shown) [Example 1, 5-(5,6,6a,7,9,10-hexahydro-[1,4]oxazino[3,4-h]pteridin-2-yl)pyrimidin-2-amine] | 31.6 nM | 
12 | c1cc(-c2ncc3c(n2)N2CCOCC2CN3)c2cc[nH]c2c1 (stereo not shown) [Example 2, 2-(1H-indol-4-yl)-5,6,6a,7,9,10-hexahydro-[1,4]oxazino[3,4-h]pteridine] | 50.1 nM | 
13 | COc1ccc2c(-c3ncc4c(n3)N3CCOCC3CN4)c[nH]c2c1 (stereo not shown) [Example 8, 2-(6-methoxy-1H-indol-3-yl)-5,6,6a,7,9,10-hexahydro-[1,4]oxazino[3,4-h]pteridine] | > 10000 nM | 
14 | COc1cccc2c(-c3ncc4c(n3)N3CCOCC3CN4)c[nH]c12 (stereo not shown) [Example 9, 2-(7-methoxy-1H-indol-3-yl)-5,6,6a,7,9,10-hexahydro-[1,4]oxazino[3,4-h]pteridine] | > 10000 nM | 
15 | c1cc(-c2ncc3c(n2)N2CCOCC2CN3)c2nc[nH]c2c1 (stereo not shown) [Example 10, 2-(1H-benzo[d]imidazol-4-yl)-5,6,6a,7,9,10-hexahydro-[1,4]oxazino[3,4-h]pteridine] | 3160 nM | 
16 | Clc1cccc2c(-c3ncc4c(n3)N3CCOCC3CN4)c[nH]c12 (stereo not shown) [Example 11, 2-(7-chloro-1H-indol-3-yl)-5,6,6a,7,9,10-hexahydro-[1,4]oxazino[3,4-h]pteridine] | > 10000 nM | 
17 | Oc1cc2c(-c3ncc4c(n3)N3CCOCC3CN4)cccc2[nH]1 (stereo not shown) [Example 12, 4-(5,6,6a,7,9,10-hexahydro-[1,4]oxazino[3,4-h]pteridin-2-yl)-1H-indol-2-ol] | 7940 nM | 
18 | COc1cc(-c2ncc3c(n2)N2CCOCC2CN3)ccn1 (stereo not shown) [Example 14, 2-(2-methoxypyridin-4-yl)-5,6,6a,7,9,10-hexahydro-[1,4]oxazino[3,4-h]pteridine] | 5010 nM | 
19 | c1cc(-c2ncc3c(n2)N2CCOCC2CN3)c2cc[nH]c2n1 (stereo not shown) [Example 15, 2-(1H-pyrrolo[2,3-b]pyridin-4-yl)-5,6,6a,7,9,10-hexahydro-[1,4]oxazino[3,4-h]pteridine] | 398 nM | 

Next, values leading:

Row | IC50 | PI3Kδ Inhibition (pIC50) | Structure (SMILES)
20 | 5.01 nM |  | c1cc(-c2ncc3c(n2)N2CCOCC2CN3CC2CC2)c2cc[nH]c2c1 (stereo not shown) [Example 3, 5-(cyclopropylmethyl)-2-(1H-indol-4-yl)-5,6,6a,7,9,10-hexahydro-[1,4]oxazino[3,4-h]pteridine]
21 | 3.98 nM |  | CS(=O)(=O)c1ccc(CN2CC3COCCN3c3nc(-c4cnc(N)nc4)ncc32)cc1 (stereo not shown) [Example 4, 5-(5-(4-(methylsulfonyl)benzyl)-5,6,6a,7,9,10-hexahydro-[1,4]oxazino[3,4-h]pteridin-2-yl)pyrimidin-2-amine]
22 | 10 nM |  | CS(=O)(=O)c1ccc(CN2CC3COCCN3c3nc(-c4cccc5[nH]ccc45)ncc32)c(Cl)c1 (stereo not shown) [Example 5, 5-(2-chloro-4-(methylsulfonyl)benzyl)-2-(1H-indol-4-yl)-5,6,6a,7,9,10-hexahydro-[1,4]oxazino[3,4-h]pteridine]
23 | 10 nM |  | CNC(=O)Nc1ccc(-c2ncc3c(n2)N2CCOCC2CN3Cc2ccc(S(C)(=O)=O)cc2Cl)cc1 (stereo not shown) [Example 6, 1-(4-(5-(2-chloro-4-(methylsulfonyl)benzyl)-5,6,6a,7,9,10-hexahydro-[1,4]oxazino[3,4-h]pteridin-2-yl)phenyl)-3-methylurea]
24 | 7.94 nM |  | CS(=O)(=O)c1ccc(CN2CC3COCCN3c3nc(-c4cnc(N)nc4)ncc32)c(Cl)c1 (stereo not shown) [Example 7, 5-(5-(2-chloro-4-(methylsulfonyl)benzyl)-5,6,6a,7,9,10-hexahydro-[1,4]oxazin[3,4-h]pteridin-2-yl)pyrimidin-2-amine]
25 | 15.8 nM |  | CC(C)(O)c1ccc(CN2CC3COCCN3c3nc(-c4cccc5[nH]ccc45)ncc32)cc1 (stereo not shown) [Example 13, 2-(4-((2-(1H-indol-4-yl)-6a,7,9,10-tetrahydro-[1,4]oxazino[3,4-h]pteridin-5(6H)-yl)methyl)phenyl)propan-2-ol]
26 | 6310 nM |  | Cc1c[nH]c2c(F)ccc(-c3ncc4c(n3)N3CCOCC3CN4Cc3ccc(S(C)(=O)=O)cc3)c12 (stereo not shown) [Example 16, 2-(7-fluoro-3-methyl-1H-indol-4-yl)-5-(4-(methylsulfonyl)benzyl)-5,6,6a,7,9,10-hexahydro-[1,4]oxazino[3,4-h]pteridine]
27 | 39.8 nM |  | CS(=O)(=O)c1ccc(CN2CC3COCCN3c3nc(-c4ccc(F)c5[nH]ccc45)ncc32)cc1 (stereo not shown) [Example 17, 2-(7-fluoro-1H-indol-4-yl)-5-(4-(methylsulfonyl)benzyl)-5,6,6a,7,9,10-hexahydro-[1,4]oxazino[3,4-h]pteridine]
28 | 398 nM |  | Cc1ccc(S(=O)(=O)N2CC3COCCN3c3nc(-c4cccc5[nH]ccc45)ncc32)cc1 (stereo not shown) [Example 18, 2-(1H-indol-4-yl)-5-tosyl-5,6,6a,7,9,10-hexahydro-[1,4]oxazino[3,4-h]pteridine]
29 | 10 nM |  | CS(=O)(=O)c1ccc(CN2CC3COCCN3c3nc(-c4cccc5[nH]ccc45)ncc32)cc1 (stereo not shown) [Example 19, 2-(1H-indol-4-yl)-5-(4-(methylsulfonyl)benzyl)-5,6,6a,7,9,10-hexahydro-[1,4]oxazino[3,4-h]pteridine]
30 | 501 nM |  | COc1ccc(CC(=O)N2CC3COCCN3c3nc(-c4cccc5[nH]ccc45)ncc32)cc1 (stereo not shown) [Example 20, 1-(2-(1H-indol-4-yl)-6a,7,9,10-tetrahydro-[1,4]oxazino[3,4-h]pteridin-5(6H)-yl)-2-(4-methoxyphenyl)ethanone]
31 | 1260 nM |  | CS(=O)(=O)c1ccc(CN2CC3COCCN3c3nc(-c4cccc5[nH]c(C(F)(F)F)cc45)ncc32)cc1 (stereo not shown) [Example 21, 5-(4-(methylsulfonyl)benzyl)-2-(2-(trifluoromethyl)-1H-indol-4-yl)-5,6,6a,7,9,10-hexahydro-[1,4]oxazino[3,4-h]pteridine]
32 | 20 nM |  | CS(=O)(=O)c1ccc(CN2CC3COCCN3c3nc(-c4cccc5[nH]ncc45)ncc32)cc1 (stereo not shown) [Example 22, 2-(1H-indazol-4-yl)-5-(4-(methylsulfonyl)benzyl)-5,6,6a,7,9,10-hexahydro-[1,4]oxazino[3,4-h]pteridine]
33 | 5.01 nM |  | CS(=O)(=O)c1ccc(CN2CC3COCCN3c3nc(-c4cncc5[nH]ccc45)ncc32)cc1 (stereo not shown) [Example 23, 5-(4-(methylsulfonyl)benzyl)-2-(1H-pyrrolo[2,3-c]pyridin-4-yl)-5,6,6a,7,9,10-hexahydro-[1,4]oxazino[3,4-h]pteridine]
34 | 63.1 nM |  | CS(=O)(=O)c1ccc(CN2CC3COCCN3c3nc(-c4cnc5cc[nH]c5c4)ncc32)cc1 (stereo not shown) [Example 24, 5-(4-(methylsulfonyl)benzyl)-2-(1H-pyrrolo[3,2-b]pyridin-6-yl)-5,6,6a,7,9,10-hexahydro-[1,4]oxazino[3,4-h]pteridine]

Reference: patent US8791107B2, “N-substituted oxazinopteridines and oxazinopteridinones” (Takeda Pharmaceutical Company Limited, priority 2011, dated 2014)
